Assay results taken from article PMC13223435, “Synthesis and Antiproliferative Activity against Melanoma Cells of New Heterocyclic Hybrids Based on Pyridine and Pyrimidine Scaffolds” (Current Medicinal Chemistry, 2025).

How the values were obtained:
A375 cells [1] = assay: Live-cell imaging (time-lapse microscopy); type: cell-based
Experimental: For live-cell imaging, A375 cells were seeded into 96-well plates at a density of 2×10^3 cells per well and allowed to grow for 24 h before imaging. Next, the cell culture medium was carefully removed, and new medium containing 16b (at 2 µM and 10 µM) and 29 (at 5 µM and 10 µM) was added and the cell culture plate was placed in the imaging chamber of Agilent BioTek Lionheart FX automated microscope (Agilent Technologies, Inc., Santa Clara, CA, USA) equipped with a Plan Fluorite 20x/0.75 objective (Olympus, Nishi-Shinjuki, Tokyo, Japan), and a FLIR Blackfly BFLY-U3-23S6M camera (Teledyne FLIR, Wilsonville, OR, USA). The temperature in the imaging chamber was set to 37°C and CO2 level to 5%. The bright-field images were acquired every 5 minutes for 48 hours.

melanoma A375 cells = assay: WST-1 antiproliferative assay; type: cell-based; details: Homo sapiens, A-375; for activity at 10 µM: 48 h of treatment, A375, read-out: Cell proliferation (% control); for IC50: 48 hours of treatment
Source text: (§1) The A375 malignant melanoma cell line (ECACC 88113005, Salisbury, UK) was procured from the European Collection of Authenticated Cell Cultures (ECACC). The primary culture of human dermal fibroblasts (HDF) was derived from skin according to the protocol approved by the Ethical Committee of Pomeranian Medical University in Szczecin (KB-0012/02/18). The detailed protocol of fibroblast isolation, authentication, and cell culture conditions was previously described. Both cell lines were cultivated in a humidified incubator under conditions of 5% CO2 and a temperature of 37°C, using Dulbecco’s modified Eagle’s medium (DMEM) with 4500 mg/L glucose (Sigma-Aldrich Merck Group, St. Louis, MO, USA) enriched with 10% heat-inactivated fetal bovine serum (FBS, EURx, Gdańsk, Poland), 2 mM L-glutamine (Sigma-Aldrich Merck Group, St. Louis, MO, USA), and penicillin-streptomycin solution (Sigma-Aldrich Merck Group, St. Louis, MO, USA). Regular assessments for the presence of mycoplasma were conducted using the MycoAlert® Mycoplasma Detection Kit (Lonza, Rockland, ME, USA).
(§2) The evaluation of the antiproliferative activity of the compounds was performed using the Cell Proliferation Reagent WST-1 assay (Roche, Germany). This assay relies on the reduction of tetrazolium salt to formazan, with the final amount of formazan proportional to the number of viable cells. In our study, A375 cells (2×10^3) and HDF (3×10^3) were initially seeded into 96-well plates and cultured in a humidified atmosphere of 5% CO2 at 37°C. 24 hours later, the culture medium was replaced with a medium containing the tested compounds for a 48-hour incubation period at specified final concentrations. […] For control purposes, cells without the tested compounds, which contained only the vehicle (DMSO), were used. Additionally, a blank sample consisting of tested compounds in a medium (without cells) was included. After the 48-hour incubation period, the WST-1 reagent was introduced and allowed to incubate with the cells for 30 minutes. The absorbance was subsequently measured at 450 nm with background correction at 620 nm using a microplate reader (Infinite 200 Pro, Tecan, Männedorf, Switzerland). Cell viability was calculated according to the following formula: [(Atest–Ablank)/ (Acontrol − Ablank)] × 100%. These measurements were conducted in triplicate for at least three independent experiments.
In the screening step, 10 µM solutions of all 33 compounds were tested on A375 cells. […] Selected compounds (2c, 18e, 16b, 29) were tested at concentrations of 0.1, 1, 10, 50, and 100 µM. The IC50 values were determined using an online calculator (AAT Bioquest, Inc., Quest Graph™ IC50 Calculator (v.1). Retrieved from https://www.aatbio.com/tools/IC50-calculator-v1, accessed on: 2022, December 12).

tubulin = molecular target: T1, tubulin (Sus scrofa, UniProt P02550+P02554); assay: Cell free tubulin polymerization assay (fluorescence-based); type: biochemical
T1 construct: purchased Cytoskeleton, Denver, CO, USA
Experimental: The tubulin polymerization process was evaluated using a tubulin (>99% pure) and fluorescence-based tubulin polymerization kit (Cytoskeleton, Denver, CO, USA). The effects of compounds 16b and 29 (at final concentrations of 1, 10, 50, 100 µM) on tubulin polymerization were evaluated in cell-free conditions. Paclitaxel (PTX) and vinblastine (VBL) (3 µM) were used as references, and DMSO (0.2%) was used as the vehicle control. This assay tracks the process of tubulin polymerization through an increase in fluorescence resulting from the addition of a fluorescence reporter to microtubules as polymerization occurs. After incubating the tested compounds at 37°C for 1 minute, the icy tubulin reaction mixture (2 mg/mL tubulin, 1.0 mM GTP, 15% glycerol in buffer containing 80 mM PIPES, 2.0 mM MgCl2, 0.5 mM EGTA, pH 6.9, and 10 µM fluorescent reporter) was added to the samples, which were then mixed and monitored using a spectrophotometric microplate reader (Infinite 200 Pro, Tecan) at 1-minute intervals for 90 minutes at 37°C (excitation: 360 nm, emission: 450 nm). The software installed on the plate reader was used to compute the maximum slope (Vmax) of the growth phase, measured in RFU/min, as outlined in the manufacturer's instructions. Each polymerization curve's Vmax was then standardized against the control curve's Vmax. The IC50 values were determined using an online tool (AAT Bioquest, Inc., Quest Graph™ IC50 Calculator ((v.1). Retrieved from https://www.aatbio.com/tools/IC50-calculator-v1, accessed on: 2024, May 6).

A375 cells [2] = assay: Annexin V-PE/7-AAD apoptosis assay (Muse); type: cell-based; details: 48 h, early and late apoptotic
Experimental: In this study, A375 cells were initially seeded into 24-well plates at a density of 1×10^4 cells per well. After 24 hours, the cell culture medium was carefully removed, and a new medium containing 16b and 29 at varying final concentrations (1, 5, and 10 µM) was added, followed by an additional 48-hour incubation. Cells in a medium containing 0.2% DMSO served as the control group. After the treatment period, cells were washed with phosphate-buffered saline (PBS), and both the cell medium and PBS wash were retained. The cells were then detached using trypsin and centrifuged. The resulting cell pellet was suspended in a fresh medium after discarding the supernatant. An equivalent volume of Muse Annexin V & Dead Cell Reagent (Luminex Corporation, Austin, TX, USA) was added and thoroughly mixed through repeated pipetting. The staining procedure was conducted for 20 minutes at room temperature in the absence of light. The Muse Cell Analyzer (Luminex Corporation, Austin, TX, USA) was utilized for analysis. This assay detects phosphatidylserine (PS) on apoptotic cell surfaces using annexin V-PE (phycoerythrin) binding. A 7-AAD (7-aminoactinomycin D) marker was used to assess cell membrane integrity. The dual staining approach enabled the identification of four distinct cell groups: viable (Annexin V-PE− and 7-AAD−), early apoptotic (Annexin V-PE+ and 7-AAD−), late apoptotic/dead (Annexin V-PE+ and 7-AAD+), and primarily nuclear debris (Annexin V-PE− and 7-AAD+). The findings were based on at least three separate experimental runs.

[3] = WST-1 assay on non-tumor cells (selectivity); type: cell-based, human; details: human, primary human dermal fibroblasts (HDF); at 500 µM
Source text: as §1, §2
(§3) For that purpose, non-tumor HDF cells were used and the concentrations of tested compounds were increased to 200 µM (0.4% DMSO) and 500 µM (1% DMSO). Appropriate controls were prepared for higher concentrations of DMSO.

[4] = system: human dermal fibroblasts (HDF); assay: WST-1 assay on non-tumor cells (selectivity); type: cell-based
Source text: as §1, §2, §3

T1 sequence (P02554 whole entry): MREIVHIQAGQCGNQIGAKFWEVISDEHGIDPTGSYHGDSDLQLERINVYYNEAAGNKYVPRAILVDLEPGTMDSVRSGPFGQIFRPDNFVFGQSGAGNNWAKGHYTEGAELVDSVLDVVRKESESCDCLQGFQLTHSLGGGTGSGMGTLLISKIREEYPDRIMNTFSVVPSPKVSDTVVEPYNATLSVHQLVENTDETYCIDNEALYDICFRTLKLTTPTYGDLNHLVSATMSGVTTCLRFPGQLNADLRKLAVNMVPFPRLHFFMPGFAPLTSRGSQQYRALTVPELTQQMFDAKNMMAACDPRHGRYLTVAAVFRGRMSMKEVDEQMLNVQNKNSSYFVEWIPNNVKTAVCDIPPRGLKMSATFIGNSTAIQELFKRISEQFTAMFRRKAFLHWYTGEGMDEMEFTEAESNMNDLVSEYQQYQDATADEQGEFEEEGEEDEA
T1 sequence (P02550 whole entry): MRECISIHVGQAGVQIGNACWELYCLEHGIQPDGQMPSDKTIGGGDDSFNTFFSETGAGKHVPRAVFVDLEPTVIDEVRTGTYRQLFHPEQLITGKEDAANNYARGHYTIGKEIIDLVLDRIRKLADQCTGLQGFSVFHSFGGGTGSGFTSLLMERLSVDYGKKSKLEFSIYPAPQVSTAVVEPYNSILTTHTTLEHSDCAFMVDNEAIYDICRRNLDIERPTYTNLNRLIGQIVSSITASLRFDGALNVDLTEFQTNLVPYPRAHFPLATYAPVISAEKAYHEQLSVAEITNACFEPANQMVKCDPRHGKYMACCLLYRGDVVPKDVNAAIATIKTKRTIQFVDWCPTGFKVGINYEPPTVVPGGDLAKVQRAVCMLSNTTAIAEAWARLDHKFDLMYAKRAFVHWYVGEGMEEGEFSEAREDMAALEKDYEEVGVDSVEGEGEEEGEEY

SMILES | activity at 10 µM (melanoma A375 cells) [%] | further results
COc1ccc(/C=C\c2cc(OC)c(OC)c(OC)c2)cc1O [CA-4, combretastatin-4, reference compound] | – | time-lapse observation of A375 cells (A375 cells [1]; 1 µM, positive control): caused the formation of characteristic protrusions, indicating changes in the organization of the cytoskeleton leading to apoptosis with typical apoptotic bodies
COc1cc(-c2cnc(=S)[nH]c2)cc(OC)c1OC [Compound 1d] | 99.2 ± 10.8 | –
COc1ccc(C2=CNC(=S)N(Cc3ccccc3)C2C#Cc2ccccc2)cc1 (centres unmarked) [Compound 2a] | 100 ± 6.85 | –
COc1ccc(C2=CNC(=S)N(C)C2C#Cc2ccsc2)cc1 (centres unmarked) [Compound 2b] | 92.4 ± 2.51 | –
S=C1NC=C(c2ccccc2)C(C#Cc2ccsc2)N1Cc1ccccc1 (centres unmarked) [Compound 2c] | 44.8 ± 6.68 | IC50 (melanoma A375 cells): 59.3 ± 9.62 µM
COc1ccc(C2=CNC(=S)N(C)C2C#Cc2ccccn2)cc1 (centres unmarked) [Compound 2d] | 93.3 ± 16.6 | –
COc1cc(C2=CNC(=S)NC2Cc2ccccc2)cc(OC)c1OC (centres unmarked) [Compound 2e] | 138 ± 19.5 | –
COc1cc(C2=CNC(=S)NC2c2cccs2)cc(OC)c1OC (centres unmarked) [Compound 2f] | 127 ± 9.99 | –
COc1ccc(C#Cc2ccsc2)cn1 [Compound 4b] | 111 ± 10.8 | –
O=c1ccc(C#Cc2cccs2)c[nH]1 [Compound 5a] | 114 ± 4.12 | –
O=c1ccc(C#Cc2ccsc2)c[nH]1 [Compound 5b] | 113 ± 9.77 | –
S=C1CC(Cc2ccccc2)C(C#Cc2cccs2)=CN1 (centres unmarked) [Compound 6a] | 101 ± 9.41 | –
S=C1CC(Cc2ccccc2)C(C#Cc2ccsc2)=CN1 (centres unmarked) [Compound 6b] | 101 ± 6.05 | –
O=c1ccc(-n2cc(-c3ccsc3)nn2)c[nH]1 [Compound 9a] | 114 ± 14.5 | –
O=C1CC(Cc2ccccc2)C(n2cc(-c3ccsc3)nn2)=CN1 (centres unmarked) [Compound 10a] | 98.8 ± 12.6 | –
O=C1CC(Cc2ccccc2)C(n2cc(-c3ccccc3)nn2)=CN1 (centres unmarked) [Compound 10b] | 96.1 ± 4.11 | –
O=c1ccc(-c2csc3ccccc23)c[nH]1 [Compound 12a] | 106 ± 6.52 | –

SMILES | activity at 10 µM (melanoma A375 cells) [%] | further results
O=c1ccc(-c2cccc3sccc23)c[nH]1 [Compound 12b] | 97.8 ± 6.41 | –
S=c1ccc(-c2csc3ccccc23)c[nH]1 [Compound 13a] | 100 ± 3.65 | –
S=c1ccc(-c2cccc3sccc23)c[nH]1 [Compound 13b] | 77.5 ± 13.1 | –
S=c1ccc(-c2cccs2)cn1Cc1ccc2c(c1)OCO2 [Compound 16a] | 99.1 ± 3.1 | –
S=C1CC=C(c2cccs2)C(Cc2ccccc2)N1CC1CC1 (centres unmarked) [Compound 17c] | 117 ± 2.07 | –
S=C1CC=C(c2ccco2)C(Cc2ccccc2)N1CC1CC1 (centres unmarked) [Compound 17d] | 98.7 ± 1.41 | –
S=C1CC(Cc2ccccc2)C(c2ccco2)=CN1 (centres unmarked) [Compound 18e] | 51.4 ± 18.5 | IC50 (melanoma A375 cells): 10.1 ± 0.75 µM
O=C1CC(Cc2ccccc2)C(C(=O)N2CCOCC2)=CN1 (centres unmarked) [Compound 21] | 117 ± 13 | –
Cn1c(CC2C=CN(c3ccccc3)C(=O)C2)cc2ccccc21 (centres unmarked) [Compound 23a] | 67.6 ± 13.3 | –
Cn1c(CC2C=CN(c3ccccc3)C(=S)C2)cc2ccccc21 (centres unmarked) [Compound 23b] | 81.4 ± 14.9 | –
Cn1c(CC2C=CCC(=O)N2c2ccccc2)cc2ccccc21 (centres unmarked) [Compound 24a] | 107 ± 14.2 | –
O=C1CC(Cc2nc3ccccc3o2)C=CN1c1ccccc1 (centres unmarked) [Compound 25a] | 104 ± 1.5 | –
S=C1CC(Cc2nc3ccccc3o2)C=CN1c1ccccc1 (centres unmarked) [Compound 25b] | 88.9 ± 8.81 | –
CN1C=C(c2ccccc2)[C@@H](c2ccccc2)[C@H](C(=O)c2ccccc2)C1=S [Compound 29] | 24.7 ± 4.73 | IC50 (tubulin; Vmax normalised to control, read-out: tubulin polymerization inhibition IC50): > 100 µM; effect on tubulin polymerization (tubulin; all tested concentrations (1-100 µM)): not interacting with tubulin; percentage of annexin-positive cells (A375 cells [2]; 5 µM): 8.28 ± 1.80%; percentage of annexin-positive cells (A375 cells [2]; 10 µM): 21.38 ± 1.55%; IC50 (melanoma A375 cells): 4.85 ± 1.67 µM; viability at 48 h, 500 µM [3]: 85.9 ± 7.47%; IC50 ([4]; Fibroblast, 48 hours of treatment, normal human dermal fibroblasts): > 500 µM; Selectivity index (SI) ([4]; IC50 normal cells (HDF)/IC50 cancer cell (A375)): > 100; time-lapse observation of A375 cells (A375 cells [1]; 5 µM, 48 h): more normal cells in the field of view than in the case of the same concentration of 16b
CC(=O)O[C@H]1C(=O)[C@@]2(C)[C@H]([C@H](OC(=O)c3ccccc3)[C@]3(O)C[C@H](OC(=O)[C@H](O)[C@@H](NC(=O)c4ccccc4)c4ccccc4)C(C)=C1C3(C)C)[C@]1(OC(C)=O)CO[C@@H]1C[C@@H]2O [PTX, Paclitaxel, reference compound] | – | effect on tubulin polymerization (tubulin; 3 µM): reduced the duration of the nucleation phase and increased the Vmax
CC[C@]1(O)C[C@@H]2CN(CCc3c([nH]c4ccccc34)[C@@](C(=O)OC)(c3cc4c(cc3OC)N(C)[C@H]3[C@@](O)(C(=O)OC)[C@H](OC(C)=O)[C@]5(CC)C=CCN6CC[C@]43[C@@H]65)C2)C1 [VBL, vinblastine, reference compound] | – | effect on tubulin polymerization (tubulin; 3 µM): suppressed tubulin polymerization, resulting in decreased Vmax and reduced final polymer mass of protein
